Legend:
MCF-7 = test: [3H]-thymidine incorporation assay; assay type: cell-based; conditions: Homo sapiens, MCF7; MCF-7, 24 h of treatment
Experimental: (§1) Another method of assessing the cytotoxic effects of tested compounds, [^3H]-thymidine incorporation assay, was applied. This method provided the capability to analyze the antiproliferative activity of novel structures on MCF-7 and MDA-MB-231 through their ability to incorporate thymidine into the cells. The acquired results further confirmed the potent activity of the 14b compound as the most prominent structure among the novel compounds (Table 2). The test was carried out in triplicate at concentrations of 5, 15, and 30 μM for the MDA-MB-231 cell line and 1, 5, and 10 μM for the MCF-7 cell line.
(§2) Following the selection of cell lines for further study, the effects of all compounds on cell proliferation were evaluated on MCF-7 and MDA-MB-231 cell lines. Cells were seeded in 24-well plates and cultured as described above. Cells were treated with the compounds at concentrations 1, 5, and 10 μM, and 5, 15, and 30 μM for MCF-7 and MDA-MB-231 cell lines, respectively, for 24 h. Subsequently, 0.5 μCi [^3H]-thymidine was added for 4 h at 37 °C. Then, plates with cells were placed on the ice, the liquid was aspirated, and cells were washed twice with 1mL of 0.05 M Tris-HCl buffer comprising 0.11 M NaCl and precipitated by adding 1 mL per well of 5% trichloroacetic. After precipitation, the cells were dissolved with 1 mL of 0.1 M NaOH with 1% SDS (Sigma-Aldrich, St. Louis, MO, USA) at room temperature (RT). The cell lysates were transferred into scintillation vials containing 2 mL of scintillation fluid (Ultima Gold™ XR, PerkinElmer, MA, USA), and cell-associated radioactivity was measured using a Scintillation Counter 1900 TR, TRI-CARB (Packard, Perkin Elmer, Inc., San Jose, CA, USA). The [^3H]-thymidine uptake was expressed as a percentage of the control value.

MDA-MB-231 = test: [3H]-thymidine incorporation assay; assay type: cell-based; conditions: Homo sapiens; MDA-MB-231, 24 h of treatment
Experimental: as §1, §2

K-562 = conditions: K-562, 48 h
MOLT-4 = conditions: MOLT-4, 48 h
HCT-116 = conditions: HCT-116, 48 h
SF-268 = conditions: SF-268, 48 h
OVCAR-4 = conditions: OVCAR-4, 48 h
TK-10 = conditions: TK-10, 48 h
DU-145 = conditions: for TGI: DU-145, 48 h
BT-549 = conditions: for TGI: BT-549, 48 h
Leukemia = Leukemia subpanel
[1] = tested on: Non-small cell lung cancer; conditions: Non-small cell lung cancer subpanel
SR = test: cells; conditions: Homo sapiens, 48 h; for CC50: read-out: LC50
SK-MEL-5 = test: cells; conditions: Homo sapiens, SK-MEL-5, 48 h; for CC50: read-out: LC50, SK-MEL-5, 48 h
HS 578T = test: cells; conditions: Homo sapiens, 48 h; for GI50: HS 578T; for CC50: read-out: LC50
[2] = tested on: Non-small cell lung cancer; test: cells; conditions: Homo sapiens; for GI50: read-out: MG_MID GI50; for CC50: read-out: MG_MID LC50
Renal Cancer = test: cells; conditions: Homo sapiens; for GI50: read-out: MG_MID GI50; for CC50: read-out: MG_MID LC50
NCI-H322M = test: NCI-60 SRB screen; conditions: 48 h; for GI50 / CC50: Homo sapiens; for CC50: read-out: LC50, NCI-H322M, 48 h
U251 = test: NCI-60 SRB screen; conditions: for GI50 / CC50: Homo sapiens, U-251, 48 h; for GI50 / TGI: U251, 48 h; for CC50: read-out: LC50, U251, 48 h
OVCAR-5 = test: NCI-60 SRB screen; conditions: OVCAR-5, 48 h; for GI50: Homo sapiens
MDA-MB-468 = test: NCI-60 SRB screen; conditions: MDA-MB-468, 48 h; for GI50 / CC50: Homo sapiens; for CC50: read-out: LC50, MDA-MB-468, 48 h

CCCCC(C(=O)O)N1C(=O)/C(=C/C=C/c2ccc([N+](=O)[O-])o2)SC1=S (centres unmarked) [6b, 2-((Z)-5-((E)-3-(5-nitrofuran-2-yl)allylidene)-4-oxo-2-thioxothiazolidin-3-yl)hexanoic acid]
IC50 (MCF-7): 5.81 µM | IC50 (MDA-MB-231): 2.01 µM | TGI (K-562): 10.5 µM | TGI (MOLT-4): 13.5 µM | TGI (HCT-116): 4.05 µM | TGI (SF-268): 5.24 µM | TGI (OVCAR-4): 19.0 µM | TGI (TK-10): 8.15 µM | TGI (DU-145): 10.2 µM | TGI (BT-549): 3.12 µM | MG_MID TGI (Leukemia): 9.84 µM | MG_MID TGI [1]: 6.45 µM | GI50 (SR): 1.98 µM | CC50 (SR): > 100 µM | GI50 (SK-MEL-5): 1.45 µM | CC50 (SK-MEL-5): 5.29 µM | GI50 (HS 578T): 3.38 µM | CC50 (HS 578T): > 100 µM | GI50 [2]: 2.43 µM | CC50 [2]: 38.7 µM | GI50 (Renal Cancer): 2.24 µM | CC50 (Renal Cancer): 17.7 µM | TGI (NCI-H322M): 15.0 µM | GI50 (NCI-H322M): 3.84 µM | CC50 (NCI-H322M): 43.9 µM | GI50 (U251): 1.91 µM | CC50 (U251): 11 µM | TGI (U251): 4.42 µM | GI50 (OVCAR-5): 2.08 µM | TGI (OVCAR-5): 4.62 µM | GI50 (MDA-MB-468): 1.63 µM | CC50 (MDA-MB-468): 6.09 µM | TGI (MDA-MB-468): 3.15 µM

O=C(O)C(c1ccccc1)N1C(=O)/C(=C/C=C/c2ccc([N+](=O)[O-])o2)SC1=S (centres unmarked) [9b, 2-((Z)-5-((E)-3-(5-Nitrofuran-2-yl)allylidene)-4-oxo-2-thioxothiazolidin-3-yl)-2-phenylacetic acid]
IC50 (MCF-7): 7.98 µM | IC50 (MDA-MB-231): 7.53 µM | TGI (K-562): 19.3 µM | TGI (MOLT-4): 39.9 µM | TGI (HCT-116): 8.14 µM | TGI (SF-268): 23.7 µM | TGI (OVCAR-4): 28.0 µM | TGI (TK-10): 30.0 µM | TGI (DU-145): 23.7 µM | TGI (BT-549): 7.81 µM | MG_MID TGI (Leukemia): 24.2 µM | MG_MID TGI [1]: 31.8 µM | GI50 (SR): 3.15 µM | CC50 (SR): > 100 µM | GI50 (SK-MEL-5): 3.38 µM | CC50 (SK-MEL-5): 38.8 µM | GI50 (HS 578T): 4.59 µM | CC50 (HS 578T): > 100 µM | GI50 [2]: 11.1 µM | CC50 [2]: 73.2 µM | GI50 (Renal Cancer): 9.53 µM | CC50 (Renal Cancer): 50.7 µM | TGI (NCI-H322M): 26.6 µM | GI50 (NCI-H322M): 13.4 µM | CC50 (NCI-H322M): 52.5 µM | GI50 (U251): 4.11 µM | CC50 (U251): 49.8 µM | TGI (U251): 16.5 µM | GI50 (OVCAR-5): 12.7 µM | TGI (OVCAR-5): 25.8 µM | GI50 (MDA-MB-468): 2.74 µM | CC50 (MDA-MB-468): 45.6 µM | TGI (MDA-MB-468): 10.4 µM

CC(C)C(C(=O)O)N1C(=O)/C(=C/C=C/c2ccc([N+](=O)[O-])o2)SC1=S (centres unmarked) [5b, 3-Methyl-2-((Z)-5-((E)-3-(5-nitrofuran-2-yl)allylidene)-4-oxo-2-thioxothiazolidin-3-yl)butanoic acid]
IC50 (MCF-7): 1.93 µM | IC50 (MDA-MB-231): 6.01 µM | TGI (K-562): 2.86 µM | TGI (MOLT-4): 10.7 µM | TGI (HCT-116): 1.13 µM | TGI (SF-268): 3.57 µM | TGI (OVCAR-4): 6.72 µM | TGI (TK-10): 4.03 µM | growth GP (DU-145; DU-145, 10 μM, 48 h): -98.94% | TGI (DU-145): 2.82 µM | growth GP (BT-549; BT-549, 10 μM, 48 h): -98.16% | TGI (BT-549): 2.14 µM | MG_MID TGI (Leukemia): 3.77 µM | MG_MID TGI [1]: 4.25 µM | GI50 (SR): 0.32 µM | CC50 (SR): > 100 µM | GI50 (SK-MEL-5): 1.03 µM | CC50 (SK-MEL-5): 4.74 µM | GI50 (HS 578T): 2.09 µM | CC50 (HS 578T): > 100 µM | GI50 [2]: 1.8 µM | CC50 [2]: 20.1 µM | GI50 (Renal Cancer): 1.54 µM | CC50 (Renal Cancer): 7.72 µM | TGI (NCI-H322M): 3.88 µM | GI50 (NCI-H322M): 1.82 µM | CC50 (NCI-H322M): 8.29 µM | GI50 (U251): 0.5 µM | CC50 (U251): 4.64 µM | TGI (U251): 1.79 µM | GI50 (OVCAR-5): 2.13 µM | TGI (OVCAR-5): 3.83 µM | GI50 (MDA-MB-468): 1.37 µM | CC50 (MDA-MB-468): 6.16 µM | TGI (MDA-MB-468): 2.90 µM

From paper PMC12655351, “Synthesis and Anticancer Activity Evaluation of New 5-((5-Nitrofuran-2-yl)allylidene)-2-thioxo-4-thiazolidinones” (Pharmaceuticals, 2025)
